The subject of this assay is hiPSC. Kind of assay: Defined matrices: pluripotent growth and cardiac differentiation of hiPSC. It is filed as cell-based, human. From the text:
Determination that Laminin-Based Matrices are Most Suitable for Cardiac Differentiation. […] This lack of long-term adhesion during the differentiation was present irrelevant of vitronectin peptide concentrations and could be resolved by passaging and replating onto new matrix, yet we sought to find a more suitable solution. We assessed culture of hiPSC in E8 medium and subsequent differentiation on other defined matrices: recombinant human (rH) Ecadherin, rH vitronectin, rH laminin-521, truncated rH laminin-511, human fibronectin, or a fibronectin mimetic (FIG. 2a). Chemically defined long-term maintenance of pluripotency in E8 was successful on all surfaces except those based on fibronectin. […] Cells cultured on each of the five successful matrices (>6 passages) were then differentiated in CDM3. Although all matrices produced efficient differentiations (FIG. 2b), the laminin matrices were both successful for maintaining long-term adhesion during chemically defined cardiac differentiation (FIG. 2d), but prohibitively expensive for large-scale application. […]
Growth assays. To assess cell growth, cells were counted using a Countess automated cell counter (Life Technologies). […] Cumulative population doublings was calculated using the formula n=3.32 [log10(N/N0)].
Matrices. […] Matrices were assessed on both 6-well polystyrene tissue culture plates and untreated plates (both from Greiner). […]

Turning to “recombinant laminin-521: recombinant human laminin-521 matrix”, the “support of pluripotent hiPSC growth and long-term adherence of CMs” value is “most successful”.

Source of the values: patent US9234176B2, “Chemically defined production of cardiomyocytes from pluripotent stem cells” (The Board of Trustees of the Leland Stanford Junior …, priority 2012, dated 2016).
